Reference: patent publication US20230200216A1, “ORGANIC LIGHT-EMITTING DEVICE” (CANON KABUSHIKI KAISHA, priority 2021, published 2023)

Experiment: Sublimability: decomposition temperature (TG/DTA, 5% mass loss) minus sublimation temperature
Type: physicochemical
Conditions: 5% mass reduction, sublimation: Ar flow, vacuum 1×10^−1 Pa
Excerpt: Table 4 presents the results of comparisons in sublimability between exemplified compound RD21 serving as the first guest and compound 1 and between exemplary compound RD30 serving as the first guest and compound 2. As an evaluation of sublimability, comparisons are made of the temperature difference between the sublimation temperature and the decomposition temperature (ΔT=decomposition temperature−sublimation temperature). A larger temperature difference can be said to indicate higher sublimability. With regard to the decomposition temperature, TG/DTA measurement was performed, and the temperature at which a reduction in mass reached 5% was defined as the decomposition temperature. With regard to the sublimation temperature, the sublimation purification was performed by slowly increasing the temperature while allowing Ar to flow at a degree of vacuum of 1×10^−1 Pa, and the temperature at which a sufficient sublimation rate was reached was defined as the sublimation temperature.

SMILES	ΔT = decomposition temperature − sublimation temperature [°C]
CC(C)(C)c1cc2cc(C(C)(C)C)cc3c4ccc5c6cc7c(-c8ccccc8)c8c9ccc%10c%11cc(C(C)(C)C)cc%12cc(C(C)(C)C)cc(c%13ccc(c8c(-c8ccccc8)c7cc6c6ccc(c(c1)c23)c4c65)c9c%13%10)c%12%11 [Compound 1]	40
c1ccc(-c2ccc(-c3ccccc3)c3c2-c2ccc4c5ccc6c7c(ccc(c8ccc-3c2c48)c75)-c2c(-c3ccc4ccccc4c3)ccc(-c3ccc4ccccc4c3)c2-6)cc1 [Compound 2]	60
c1ccc(-c2ccccc2-c2c3cc4c(cc3c(-c3ccccc3)c3c5ccc6c7cccc8cccc(c9ccc(c23)c5c69)c87)c2ccc3c5cccc6cccc(c7ccc4c2c37)c65)cc1 [Exemplified compound RD21]	100
c1ccc(-c2ccccc2-c2ccc(-c3ccccc3-c3ccccc3)c3c2-c2ccc4c5ccc6c7c(ccc(c8ccc-3c2c48)c75)-c2c(-c3ccccc3)ccc(-c3ccccc3)c2-6)cc1 [Exemplified compound RD30]	130
